US4742049A, “Semisynthetic erythromycin antibiotics” (Abbott Laboratories, priority 1986, dated 1988)
In brackets after ≈: the same amount, converted by molar mass. Where two headings read alike, the source gives them in different places.

Key:
Haemophilus influenzae = experiment: MIC against strains of Haemophilus influenzae; assay type: cell-based; settings: Haemophilus influenzae, read-out: MIC
Description: Erythromycin A was used for this purpose.
After incubation, each disk is read.
In the manner of Example 23, the efficacy of compounds of this invention were tested against numerous strains of Haemophilus influenzae.

[1] = tested on: gut contractions (stomach, duodenum, jejunum); settings: dog, in vivo, iv, 4 mg/kg
Description: Compounds of this invention have been tested for gastrointestinal stimulating activity in a dog model at 4 mg/kg intravenously. Contractions in the gut were recorded with surgically implanted strain gauges. […] Ratios were calculated for the stomach, duodenum and jejunum, and a final arithmetic mean index was calculated and reported in Table 1.

Row | Compound | MIC (Haemophilus influenzae; ATCC9006, strain ATCC 9006) [µg/mL] | MIC (Haemophilus influenzae; ATCC9795, strain ATCC 9795) [µg/mL] | MIC (Haemophilus influenzae; ATCC10211, strain ATCC 10211) [µg/mL] | MIC (Haemophilus influenzae; ATCC19418, strain ATCC 19418) [µg/mL] | MIC (Haemophilus influenzae; strain 504) [µg/mL] | MIC (Haemophilus influenzae; strain 519A) [µg/mL] | MIC (Haemophilus influenzae; strain 566A) [µg/mL] | MIC (Haemophilus influenzae; strain 588A) [µg/mL] | MIC (Haemophilus influenzae; strain 632A) [µg/mL] | MIC (Haemophilus influenzae; strain 667A) [µg/mL] | MIC (Haemophilus influenzae; strain 747C) [µg/mL] | MIC (Haemophilus influenzae; strain 751) [µg/mL] | MIC (Haemophilus influenzae; strain 1177) [µg/mL] | MIC (Haemophilus influenzae; strain 1435) [µg/mL] | MIC (Haemophilus influenzae; strain 5036B) [µg/mL] | MIC (Haemophilus influenzae; strain DILL AMP R) [µg/mL] | MIC (Haemophilus influenzae; strain SOL AMP R) [µg/mL] | MIC (Haemophilus influenzae; strain SPK AMP R) [µg/mL] | Gastrointestinal Motility Index [1]
1 | CC[C@H]1OC(=O)[C@H](C)[C@@H](O[C@H]2C[C@@](C)(OC)[C@@H](O)[C@H](C)O2)[C@H](C)[C@@H](O[C@@H]2O[C@H](C)C[C@H](N(C)C)[C@H]2O)[C@](C)(OC)C[C@@H](C)C(=O)[C@H](C)[C@H]2N(CCCN(C)C)C(=O)O[C@]12C [Example 12, 11-deoxy-6-O-methyl erythromycin A 11,12-[N-(3-dimethylamino)propyl]cyclic carbamate] | 0.5 (≈ 0.583 µM) | 0.5 (≈ 0.583 µM) | 1 (≈ 1.17 µM) | 1 (≈ 1.17 µM) | 1 (≈ 1.17 µM) | 0.5 (≈ 0.583 µM) | 1 (≈ 1.17 µM) | 0.5 (≈ 0.583 µM) | 0.5 (≈ 0.583 µM) | 0.5 (≈ 0.583 µM) | 0.5 (≈ 0.583 µM) | 0.5 (≈ 0.583 µM) | 0.5 (≈ 0.583 µM) | 0.25 (≈ 0.291 µM) | 1 (≈ 1.17 µM) | 0.5 (≈ 0.583 µM) | 0.5 (≈ 0.583 µM) | 0.5 (≈ 0.583 µM) | –
2 | CC[C@H]1OC(=O)[C@H](C)[C@@H](O[C@H]2C[C@@](C)(OC)[C@@H](O)[C@H](C)O2)[C@H](C)[C@@H](O[C@@H]2O[C@H](C)C[C@H](N(C)C)[C@H]2O)[C@](C)(OC)C[C@@H](C)C(=O)[C@H](C)[C@H]2N(CCCO)C(=O)O[C@]12C [Example 15, 11-deoxy-6-O-methyl erythromycin A 11,12-(N-3-hydroxypropyl)cyclic carbamate] | 0.5 (≈ 0.602 µM) | 0.5 (≈ 0.602 µM) | 1 (≈ 1.2 µM) | 1 (≈ 1.2 µM) | 1 (≈ 1.2 µM) | 0.5 (≈ 0.602 µM) | 1 (≈ 1.2 µM) | 1 (≈ 1.2 µM) | 1 (≈ 1.2 µM) | 1 (≈ 1.2 µM) | 0.5 (≈ 0.602 µM) | 1 (≈ 1.2 µM) | 1 (≈ 1.2 µM) | 0.5 (≈ 0.602 µM) | 1 (≈ 1.2 µM) | 0.5 (≈ 0.602 µM) | 0.5 (≈ 0.602 µM) | 1 (≈ 1.2 µM) | –
3 | CC[C@H]1OC(=O)[C@H](C)[C@@H](O[C@H]2C[C@@](C)(OC)[C@@H](O)[C@H](C)O2)[C@H](C)[C@@H](O[C@@H]2O[C@H](C)C[C@H](N(C)C)[C@H]2O)[C@](C)(O)C[C@@H](C)C(=O)[C@H](C)[C@H]2NC(=O)O[C@@]21C [Example 18, 11-deoxyerythromycin A 11,12-cyclic carbamate] | – | – | – | – | – | – | – | – | – | – | – | – | – | – | – | – | – | – | 3.60
4 | CC[C@H]1OC(=O)[C@H](C)[C@@H](O[C@H]2C[C@@](C)(OC)[C@@H](O)[C@H](C)O2)[C@H](C)[C@@H](O[C@@H]2O[C@H](C)C[C@H](N(C)C)[C@H]2O)[C@](C)(O)C[C@@H](C)C(=O)[C@H](C)[C@H]2N(C)C(=O)O[C@]12C [Example 19, 11-deoxyerythromycin A 11,12-(N-methyl)cyclic carbamate] | – | – | – | – | – | – | – | – | – | – | – | – | – | – | – | – | – | – | 5.83
